Reference: ChEMBL document CHEMBL5346934 (J Med Chem, 2023)

Experiments:
[1] = system: Vaccinia virus; assay: Antiviral activity against Vaccinia virus Copenhagen infected in African green monkey Vero cells measured after 4 days by colorimetric assay; format: functional, organism-based; settings: Orthopoxvirus vaccinia, 96 h
[2] = system: Vaccinia virus; assay: Antiviral activity against Vaccinia virus Copenhagen infected in human HFF cells assessed as assessed as reduction in virus-induced cytopathic effect incubated for 7 days by microscopic analysis; format: functional, organism-based; settings: Orthopoxvirus vaccinia, 168 h
[3] = system: Vaccinia virus; assay: Antiviral activity against Vaccinia virus infected in African green monkey BSC-1 cells; format: functional, organism-based, Orthopoxvirus vaccinia; settings: Orthopoxvirus vaccinia, BSC-1
[4] = system: Vaccinia virus; assay: Antiviral activity against Vaccinia virus VG9 infected in African green monkey BSC-1 cells; format: functional, organism-based, Orthopoxvirus vaccinia; settings: Orthopoxvirus vaccinia, VG9, BSC-1
[5] = system: Cowpox virus; assay: Antiviral activity against Cowpox virus Grishak infected in African green monkey Vero cells measured after 4 days by colorimetric assay; format: functional, organism-based; settings: 96 h
[6] = system: Ectromelia virus; assay: Antiviral activity against ectromelia virus K-1 infected in Vero cells measured after 4 days by colorimetric assay; format: functional, organism-based; settings: K-1, Vero, 96 h
[7] = system: HEL; assay: Cytotoxicity against human HEL cells assessed as reduction in cell growth; format: functional
[8] = system: Vaccinia virus; assay: Antiviral activity against Vaccinia virus infected in human HEL cells; format: functional, organism-based; settings: Orthopoxvirus vaccinia
[9] = system: Vaccinia virus; assay: Antiviral activity against Vaccinia virus infected in African green monkey Vero cells assessed as reduction virus induced cytopathic effect incubated for 24 hrs by MTT assay; format: functional, organism-based; settings: Orthopoxvirus vaccinia
[10] = system: Vaccinia virus; assay: Antiviral activity against Vaccinia virus infected in African green monkey CV-1 cells assessed as reduction in virus-induced cytopathic effect incubated for 5 days by colorimetric analysis; format: functional, organism-based; settings: Orthopoxvirus vaccinia, CV-1, 120 h
[11] = system: Cowpox virus; assay: Antiviral activity against Cowpox virus infected in Vero cells measured after 4 days by colorimetric assay; format: functional, organism-based; settings: 96 h
[12] = system: Vaccinia virus; assay: Antiviral activity against Vaccinia virus IHD-J infected in BSC40 cells assessed as reduction in plaque formation measured after 72 hrs by crystal violet staining based analysis; format: functional, organism-based; settings: Orthopoxvirus vaccinia, BSC-40, 72 h

`Cc1cccc(C)c1NC(=O)C(=O)NN1C(=O)C2C3C=CC(C4CC34)C2C1=O` (stereo not given) was tested, and the IC50 [1] was 1.28 µg/mL.
`CCOc1ccc2c(c1)[C@H]1C=CC[C@H]1[C@H](c1ccccc1Cl)N2` gave an EC50 [2] of 13900 nM.
For `COc1ccc(/C=C/C(=O)Nc2ccccc2C(=O)O)cc1OC` [TRANILAST], the EC50 [3] was 900 nM and the EC50 [4] was 800 nM.
Compound `CC1(C)[C@@H]2CC[C@@]1(C)[C@H](NC(=O)c1ccc(Cl)cc1)C2` has an IC50 [5] of 9200 nM, an IC50 [1] of 600 nM and an IC50 [6] of 3300 nM.
Work on `O=C1N(Nc2ccc(Cl)cc2)C(=O)C23C4C=CC5C4C4C(C=CC42)C153` yielded a CC50 [7] of over 100000 nM and an IC50 [8] of 8300 nM.
`COC(=O)Nc1nc2cc(C(=O)c3ccccc3)ccc2[nH]1` [MEBENDAZOLE] showed an EC50 [3] of 5600 nM and an EC50 [4] of 9200 nM.
For `CC(=O)C1=C2C=CCCN2C(=O)NC1c1ccccc1` (stereo not given), the IC50 [9] was 5900 nM.
Work on `C[C@@H]1C[C@@H]([C@H](O)CC2CC(=O)NC(=O)C2)C(=O)[C@@H](C)C1` [CYCLOHEXIMIDE] yielded an EC50 [10] of 2000 nM.
In the case of `CC[C@H]1CN2CCc3cc(OC)c(OC)cc3[C@@H]2C[C@@H]1C[C@H]1NCCc2cc(OC)c(OC)cc21` [EMETINE], the EC50 [10] is reported as 250 nM.
In the case of `CCCCCCCCCCCCCC[N+]12CC[N+](CCCC(=O)N[C@@H](Cc3c[nH]cn3)C(=O)O)(CC1)CC2`, the EC50 [10] is reported as 400000 nM.
`O=C1N(Nc2ccc(Cl)c(Cl)c2)C(=O)C23C4C=CC5C4C4C(C=CC42)C153` gave a CC50 [7] of over 100000 nM and an IC50 [8] of 480 nM.
`CC(=O)C1=C2C=CCCN2C(=O)NC1c1cccc(F)c1` (stereo not given) gave an IC50 [9] of 100 nM.
Compound `CC1(C)[C@@H]2CC=C(C(=O)NC34CC5CC(CC(C5)C3)C4)[C@H]1C2` has an IC50 [5] of 7200 nM, an IC50 [1] of 2500 nM and an IC50 [6] of 1700 nM.
Work on `COc1ccc(C[C@H]2NC[C@H](O)[C@H]2OC(C)=O)cc1` [ANISOMYCIN] yielded an EC50 [10] of 250 nM.
`CC1(C)[C@@H]2CC[C@@]1(C)[C@@H](NC(=O)C1CCCCC1)C2` showed an IC50 [5] of 14400 nM, an IC50 [1] of 1400 nM and an IC50 [6] of 6200 nM.
For `O=C(Nc1cccc(C(F)(F)F)c1)C(=O)NN1C(=O)C2C3C=CC(C4CC34)C2C1=O` (stereo not given), the IC50 [1] was 1.3 µg/mL.
In the case of `O=C(NN1C(=O)C2C3C=CC(C4CC34)C2C1=O)c1cc(Br)cc(Br)c1O` (stereo not given), the IC50 [1] is reported as 1.05 µg/mL.
For `O=C1N(Nc2ccc(Cl)c(C(F)(F)F)c2)C(=O)C23C4C=CC5C4C4C(C=CC42)C153`, the CC50 [7] was over 100000 nM and the IC50 [8] was 800 nM.
Compound `CC(=O)OCC(COC(C)=O)OCn1cnc2c(N)ncnc21` has an EC50 [11] of 2000 nM.
With `O=C(NN1C(=O)C2C3C=CC(C4CC34)C2C1=O)c1ccc(O)c([N+](=O)[O-])c1` (stereo not given) the IC50 [1] was 0.38 µg/mL.
`CC1(C)[C@@H]2CC=C(CCNC(=O)C34CC5CC(CC(C5)C3)C4)[C@H]1C2` was tested, and the IC50 [5] was 4100 nM, the IC50 [1] was 1800 nM and the IC50 [6] was 1600 nM.
`COc1c(C)c2c(c(O)c1C/C=C(\C)CCC(=O)O)C(=O)OC2` [MYCOPHENOLIC ACID] showed an EC50 [10] of 1000 nM.
`CCCCCCCCCCCC[N+]12CC[N+](CC#CC[N+]34CC[N+](CCCCCCCCCCCC)(CC3)CC4)(CC1)CC2` was tested, and the EC50 [10] was 100000 nM.
`Nc1ncnc2c1ncn2COC(CO)CO` showed an EC50 [11] of 3500 nM.
With `Nc1ccn(C[C@@H]2COP(=O)(O)CO2)c(=O)n1` the EC50 [11] was 48300 nM and the EC50 [9] was 50600 nM.
Work on `O=C(NN1C(=O)C2C3C=CC(C4CC34)C2C1=O)c1cc(Cl)cc(Cl)c1` (stereo not given) yielded an IC50 [1] of 0.95 µg/mL.
`CC(=O)O[C@H]1C[C@H](O[C@H]2[C@@H](O)C[C@H](O[C@H]3[C@@H](O)C[C@H](O[C@H]4CC[C@@]5(C)[C@H](CC[C@@H]6[C@@H]5C[C@@H](O)[C@]5(C)[C@@H](C7=CC(=O)OC7)CC[C@]65O)C4)O[C@@H]3C)O[C@@H]2C)O[C@H](C)[C@H]1O[C@@H]1O[C@H](CO)[C@@H](O)[C@H](O)[C@H]1O` [LANATOSIDE C] was tested, and the EC50 [10] was 500 nM.
`Cc1ccc(C2Nc3ccccc3C(=O)N2c2ccccc2)s1` (stereo not given) gave an EC50 [12] of 2200 nM.
`Cc1nn(C)c(C)c1CCOc1c(-c2ccc3c(c2)c(CN(C)C)nn3C)ccc(F)c1F` showed an EC50 [12] of 130 nM.
`C[C@@H]1O[C@@H](O[C@H]2C[C@@H](O)[C@]3(CO)[C@H]4[C@H](O)C[C@]5(C)[C@@H](C6=CC(=O)OC6)CC[C@]5(O)[C@@H]4CC[C@]3(O)C2)[C@H](O)[C@H](O)[C@H]1O` [OUABAIN] showed an EC50 [10] of 250 nM.
Work on `O=C1N(Nc2ccc(Br)c(Cl)c2)C(=O)C23C4C=CC5C4C4C(C=CC42)C153` yielded a CC50 [7] of over 100000 nM and an IC50 [8] of 600 nM.
Compound `CN(Cc1cnc2nc(N)nc(N)c2n1)c1ccc(C(=O)N[C@@H](CCC(=O)O)C(=O)O)cc1` [METHOTREXATE] has an EC50 [3] of 2200 nM and an EC50 [4] of 6100 nM.
`Cc1ccnc(NC(c2ccccc2F)c2ccc3cccnc3c2O)c1` (stereo not given) was tested, and the EC50 [2] was 2900 nM.
In the case of `O=C1c2ccccc2-c2onc3c2C1C(NC1CCCCC1)C=C3NCCO` (stereo not given), the EC50 [2] is reported as 8400 nM.
